Tests used:
[1] = tested on: RTV-268 (patient sample 97-268; P236L); experiment: Phenotypic susceptibility assay, RTV-268; assay type: cell-based, HIV-1; details: RTV-268 / patient 268
Description: The resistance test vectors containing a functional luciferase gene cassette were constructed and host cells were transfected with the resistance test vector DNA. The resistant test vectors contained patient-derived reverse transcriptase and protease sequences that were either susceptible or resistant to the antiretroviral agents, such as nucleoside reverse transcriptase inhibitors, non-nucleoside reverse transcriptase inhibitors and protease inhibitors. The resistance test vector viral particles produced by transfecting the resistance test vector DNA into host cells, either in the presence or absence of protease inhibitors, were used to infect target host cells grown either in the absence of NRTI or NNRTI or in the presence of increasing concentrations of the drug. The amount of luciferase activity produced in infected target host cells in the presence of drug was compared to the amount of luciferase produced in infected target host cells in the absence of drug. Drug resistance was measured as the amount of drug required to inhibit by 50% the luciferase activity detected in the absence of drug (inhibitory concentration 50%, IC50). The IC50 values were determined by plotting percent drug inhibition vs. log10 drug concentration.
Host cells were seeded in 10-cm-diameter dishes and were transfected several days after plating with resistance test vector plasmid DNA and the envelope expression vector. Transfections were performed using a calcium-phosphate precipitation procedure. The cell culture media containing the DNA precipitate was replaced with fresh medium, from one to 24 hours, after transfection. Cell culture media containing resistance test vector viral particles was harvested one to four days after transfection and was passed through a […] filter before being stored at −80° C. HIV capsid protein (p24) levels in the harvested cell culture media were determined by an EIA method as described by the manufacturer (SIAC; Frederick, Md.). Before infection, target cells (293 and 293/T) were plated in cell culture media. Control infections were performed using cell culture media from mock transfections (no DNA) or transfections containing the resistance test vector plasmid DNA without the envelope expression plasmid. One to three or more days after infection the media was removed and cell lysis buffer (Promega) was added to each well. […] The inhibitory effect of the drug was determined using the following equation: […]
where RLUluc [drug] is the relative light unit of luciferase activity in infected cells in the presence of drug and RLUluc is the Relative Light Unit of luciferase activity in infected cells in the absence of drug. IC50 values were obtained from the sigmoidal curves that were generated from the data by plotting the percent inhibition of luciferase activity vs. the log10 drug concentration.
A resistance test vector was constructed as described in Example 1 from a patient sample designated 97-268. […] Isolation of viral RNA and RT/PCR was used to generate a patient derived segment that comprised viral sequences coding for all of PR and amino acids 1-313 of RT. The patient derived segment was inserted into a indicator gene viral vector to generate a resistance test vector designated RTV-268. RTV-268 was then tested using the phenotypic susceptibility assay to determine accurately and quantitatively the level of susceptibility to a panel of anti-retroviral drugs. […] An IC50 was determined for each drug tested. Susceptibility of the patient virus to each drug was examined and compared to the susceptibility of a reference virus. […] The sample was examined further for genotypic changes associated with the pattern of susceptibility.

[2] = tested on: T66I integrase site-directed mutant resistance test vector; experiment: Phenotypic susceptibility assay, T66I integrase mutant vector; assay type: cell-based, HIV; details: T66I integrase mutant
Method: Transfections were performed using a calcium-phosphate precipitation procedure. […] Cell lysates were assayed for luciferase activity (FIG. 3).
The drug inhibition curves are shown in (FIG. 3).
A resistance test vector containing the threonine to isoleucine mutation at position 66 of the integrase protein (T66I) was constructed and tested using the phenotypic assay described earlier.

Question: Which “susceptibility/resistance compared to reference virus” value [1] does the source give for `Cc1cn([C@H]2C[C@H](N=[N+]=[N-])[C@@H](CO)O2)c(=O)[nH]c1=O` [AZT] here?
Answer: significant resistance

Question: Which “susceptibility/resistance compared to reference virus” value [1] does the source give for `O=c1[nH]cnc2c1ncn2[C@H]1CC[C@@H](CO)O1` [ddI] here?
Answer: slight shifts in susceptibility

Question: For `Nc1ccn([C@@H]2CS[C@H](CO)O2)c(=O)n1` [3TC], which “susceptibility/resistance compared to reference virus” value [1] is on record?
Answer: significant resistance

Question: With `Cc1cn([C@H]2C=C[C@@H](CO)O2)c(=O)[nH]c1=O` [d4T] as the compound, how does the “susceptibility/resistance compared to reference virus” value [1] read?
Answer: slight shifts in susceptibility

Question: For `O=C(O)C(=O)CC(=O)c1cccn1Cc1ccc(F)cc1` [L-731,988], which “reduction in susceptibility compared to wild type control RTV” value [2] is on record?
Answer: 4.7 fold

Question: Which “susceptibility/resistance compared to reference virus” value [1] does the source give for `Nc1ccn([C@H]2CC[C@@H](CO)O2)c(=O)n1` [ddC] here?
Answer: slight shifts in susceptibility

Reference: US20020094522A1, “Means and methods for monitoring non-nucleoside reverse transcriptase inhibitor antiretroviral therapy and guiding therapeutic decisions in the treatment of HIV/AIDS” (priority 2000, published 2002)
